# Values quoted from earlier work in publication PMC4220649 (Blood Cancer Journal, 2014).
# System: patients with lymphoma
# Settings: IV bortezomib in lymphoma; cited from earlier work
smiles,measurement,value
CC(C)C[C@H](NC(=O)[C@H](Cc1ccccc1)NC(=O)c1cnccn1)B(O)O [bortezomib],Grade 3 PN rates,3–13%
same,Overall rates of PN,17–55%
